# In patent publication US11421001B2, “Template-fixed peptidomimetics” (UNIVERSITAET ZUERICH, priority 2007, dated 2022):
# Positions of bridges follow the written chain, without caps; N, C: chain ends. Non-standard residues stand in square brackets, D forms with d. Residues, ends and D or L forms follow the SMILES beside them. Dab = NCC[C@H](N)C(=O)O
# Legend:
# [1] = Maximum tolerated dose in mice; format: in vivo, mouse; conditions: CD1 mice, 120 mg/kg bolus, i.v, ip and sc.
# Description: 3.1. Maximum Tolerated Dose in Mice
# a) The compound of Example 1, dispersed in Water for Injection or 0.9% physiological saline), was administered, in the preliminary study, by i.v. injection at dose levels of 35, 50, 70, 85, 100, 150, 250 or 500 mg/kg to groups consisting of one male and one female mouse (Crl:CD1(ICR)). In addition, two groups comprising two male and two female mice received dose levels of 90 and 100 mg/kg, respectively, and the 50 mg/kg dose level was repeated in a group comprising one male and one female.
# b) Maximum tolerated dose studies (MTD) carried out with the compound of Example 2 using CD1 mice (3 mice/group) and was performed using i.v, ip and sc. administration.
# [2] = tested on: CCRF-CEM cells, gradient of SDF-1; test: Chemotactic assay (cell migration assay); format: cell-based; conditions: 1 nM SDF-1, 4 hours
# Description: 2.7. Chemotactic Assay (Cell Migration Assay)
# The chemotactic response of CCRF-CEM cells to a gradient of stromal cell-derived factor 1α (SDF-1) was measured using disposable assay plates from Neuroprobe (5μ pore size) (Gaithersburg, Md.), according to the manufacturer's directions and references therein [especially ref. 8, below]. Briefly, one […] flask was washed once with Dubecco's phosphate buffered saline (DPBS), and trypsinized for 10 minutes or until cells had lifted. The trypsin was neutralized by the addition of fresh medium containing serum and the cells were pelleted, washed once in DPBS, and resuspended at 1-0.5×10^7 cells/ml in RPMI+0.5% bovine serum albumin (BSA). 45 μl of cell suspension were mixed with 5 μl of 10-fold concentrated PEM peptide diluted in the same assay medium. 35 μl of this mixture were applied to the top of the assay filter. […] The optical absorbance at 595 nm (ABS595) was read using a Tecan Genios plate reader with Magellan software. The number of cells migrated was determined by comparing ABS595 values against a standard curve generated with a known number of cells in the assay plate and were plotted against SDF-1 concentration to obtain a sigmoidal curve and to determine the IC50 values. The values for IC50 were determined using the Trendline function in Microsoft Excel by fitting a logarithmic curve to the averaged datapoints.
# [3] = tested on: hematopoietic progenitors (CFU-GM); test: Stem cell mobilisation, mice model (CFU-GM); format: in vivo, mouse; conditions: C3H/HeJ mice, 5 mg/kg s.c.
# Source text: The aim of the study was to evaluate the ability of the compound of Example 1 and Example 2 to mobilize hematopoietic progenitors from mouse bone marrow to peripheral blood using in-vitro hematopoietic colony assays. In humans, accurate information about progenitor cell mobilization is provided by the colony forming unit granulocyte-monocyte (CFU-GM) assay or by determining the abundance of CD34(+) cells by FACS analysis (see ref. 10 below). In mice, CD34 is not a useful marker for stem cells; instead the CFU-GM is more commonly used (see ref. 11 below).
# In order to assess the ability of the compounds of Example 1 and Example 2 to mobilize murine stem cells (CFU-GM) C3H/HeJ female mice (Jackson Laboratory) were injected s.c. with 5 mg/k, of the compounds of Example 1 and of Example 2 and as reference AMD3100 (Broxmeyer, et al, J Exp Med 201, 1307-1318), (currently undergoing Phase III clinical trials) for stem cell mobilisation. Peripheral blood samples from 5 animals per test group were collected at each time point and nucleated cell counts performed as standard assays.
# [4] = tested on: human red blood cells (hRBC); test: Hemolysis; format: cell-based
# Description: The peptides were tested for their hemolytic activity against human red blood cells (hRBC). Fresh hRBC were washed three times with phosphate buffered saline (PBS) by centrifugation for 10 min at 2000×g. Peptides at a concentration of 100 μM were incubated with 20% v/v hRBC for 1 hour at 37° C. The final erythrocyte concentration was approximately 0.9×10^9 cells per ml. A value of 0% resp. 100% cell lysis was determined by incubation of the hRBC in the presence of PBS alone and respectively 0.1% Triton X-100 in H2O. The samples were centrifuged and the supernatant was 20-fold diluted in PBS buffer and the optical density (OD) of the sample at […] was measured. The 100% lyses value (OD540H2O) gave an OD540 of approximately 1.3-1.8. Percent hemolysis was calculated as follows: (OD540peptide/OD540H2O)×100%.
# [5] = Plasma stability, human plasma; format: in vitro ADME; conditions: read-out: Stability human Plasma t1/2
# [6] = Plasma stability, rat plasma; format: in vitro ADME; conditions: read-out: Stability rat Plasma t1/2
# human CXCR4 = target: T1, human CXCR4 (Homo sapiens, UniProt P61073); test: Ca2+ assay: CXCR4-antagonizing activity; format: cell-based; conditions: mouse pre-B cell line 300-19 transfected with human CXCR4; calcium mobilization induced by 10 nM SDF-1; read-out: IC50 (nM) Ca2+ assay
# T1 construct: expressed in transfected cells; host or cells: mouse pre-B cell line 300-19
# T1 sequence (P61073 whole entry): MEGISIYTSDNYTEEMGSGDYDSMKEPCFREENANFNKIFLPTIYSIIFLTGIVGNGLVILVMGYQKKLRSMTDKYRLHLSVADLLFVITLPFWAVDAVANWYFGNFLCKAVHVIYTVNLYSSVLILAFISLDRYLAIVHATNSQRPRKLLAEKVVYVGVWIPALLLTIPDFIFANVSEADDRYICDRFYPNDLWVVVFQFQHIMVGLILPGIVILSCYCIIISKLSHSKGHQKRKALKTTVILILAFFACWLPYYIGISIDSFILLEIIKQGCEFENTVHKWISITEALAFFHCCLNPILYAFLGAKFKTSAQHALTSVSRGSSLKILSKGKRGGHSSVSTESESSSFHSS
# Description: 2.2. Ca^2+− Assay: CXCR4-Antagonizing Activity of the Peptides.
# Increases in intracellular calcium were monitored using a Flexstation 384 (Molecular Devices, Sunnyvale, Calif.) to assay the peptides for CXCR4 antagonism in a mouse pre-B cell line 300-19 stably transfected with human CXCR4 [see references 1, 2 and 3, below]. The cells were batch loaded with the Calcium 3 Assay kit (Molecular Devices) in assay buffer (Hanks Balanced salt solution, HBSS, 20 mM HEPES, pH 7.4, 0.1% BSA) for 1 h at room temperature and then 200,000 labeled cells were dispensed into black 96 well assays plates (Costar No. 3603). A 20-fold concentrated solution of peptide in assay buffer was added to the cells and the whole plate was centrifuged to settle the cells to the bottom of the wells. Calcium mobilization induced by 10 nM stromal-derived factor-1 (SDF-1) was measured in the Flexstation 384 (excitation, 485 […]) for 90 seconds. A maximal change in fluorescence response above baseline was used to calculate antagonist activity. The data for dose response curves (antagonist concentration versus % maximum response) were fitted to a four parameter logistic equation using SoftmaxPro 4.6 (Molecular Devices), from which IC50% values were calculated.
structure (smiles),measurement,setting,value
C[C@@H]1NC(=O)[C@H](CO)NC(=O)[C@@H]2CSSC[C@H](NC(=O)[C@H](Cc3ccc(O)cc3)NC(=O)[C@H](CCCNC(=N)N)NC(=O)[C@H](CCN)NC(=O)[C@H]3CCCN3C1=O)C(=O)N[C@@H](Cc1ccc(O)cc1)C(=O)N[C@@H](CCC(N)=O)C(=O)N[C@@H](CCCCN)C(=O)N1CCC[C@@H]1C(=O)N1CCC[C@H]1C(=O)N[C@@H](Cc1ccc(O)cc1)C(=O)N[C@@H](Cc1c[nH]cn1)C(=O)N[C@@H](Cc1ccc(O)cc1)C(=O)N2 [Example 2] (cyclo(YHYCSA[dP][Dab]RYCYQK[dP]P); disulfide 4-11),survival at highest dose tested,[1],all animals survived
same,symptoms at highest dose tested,[1],only mild symptoms were observed
same,IC50,[2],0.5 µM
same,time of maximal effect on CFU-GM blood cell numbers,[3],240 min
same,effect on CFU-GM blood cell numbers / progenitors over time,[3]; compared to control mice,increased the CFU-GM blood cell numbers up to six hours post administration
same,Hemo-lysis at 100 μM,[4],0.3
same,half-life at 10 µM,[5],> 5 h
same,half-life at 10 µM,[6],> 5 h
same,IC50,human CXCR4,4.1 nM
